{"source": "patent US11291618B2", "about": "“Long wear skincare compositions” (priority 2019, dated 2022)", "key": {"[1]": {"conditions": "cited from earlier work"}, "[2]": {"test": "Penetration test using a Strat-M membrane in a Franz Cell, UPLC analysis", "protocol": "In this study, exemplary actives with different hydrophilicity value were chosen. P is the partition coefficient, where a smaller P (more negative log P) indicates greater hydrophilicity. A penetration test was performed using a Strat-M® membrane, and the collected sample was then analyzed by Ultra-Performance Liquid Chromatography (UPLC). In the receptor chamber of a Franz Cell, 5.00 mL of the incubation medium was added as the collection phase. A Strat-M® membrane was loaded on top of the receptor chamber. The donor chamber was then added on top of the Strat-M® membrane, 0.80 mL of the crème was added to the donor chamber. […] At the end of that time period, 1.00 mL of the collection phase was withdrawn from the sampling port as the sample solution. The sample solution was filtered through a 0.45 micrometer (μm) syringe filter and then added into a 2.0 milliliter (mL) High Performance Liquid Chromatography (HPLC) vial. ACQUITY H UPLC from the Waters Corporation was used to analyze the collected samples from the Franz Cell study.\nThe amount of actives in the collection phase were analyzed by UPLC following the method described above."}}, "note": "Read-outs that look alike come from different tables or passages of the source.", "data": [{"smiles": "O=C1O[C@H]([C@@H](O)CO)C(O)=C1O[C@H]1O[C@H](CO)[C@@H](O)[C@H](O)[C@H]1O", "note": "[ascorbyl glucoside]", "values": [{"measurement": "Active Log P", "setting": "[1]", "value": "−4.79"}, {"measurement": "effect of inclusion of the copolymer blend on delivery of the active", "setting": "[2]", "value": "enhanced the delivery"}]}, {"smiles": "Cn1c(=O)c2c(ncn2C)n(C)c1=O", "note": "[caffeine]", "values": [{"measurement": "% of Penetration", "setting": "[2]; Franz Cell, room temperature, 48 hours", "value": "greater than 100%"}]}, {"smiles": "NC(=O)c1cccnc1", "note": "[niacinamide]", "values": [{"measurement": "effect of inclusion of the copolymer blend on delivery of the active", "setting": "[2]; with versus without copolymer blend", "value": "did not enhance the delivery"}]}]}
